In patent publication US11814391B2, “Macrocyclic compounds for the treatment of medical disorders” (Achillion Pharmaceuticals, Inc., priority 2018, dated 2023):

Each molecule was assayed against Human Factor D (Homo sapiens (Human), UniProt P00746) (assay: Human Factor D assay). Conditions: Human Factor D 80 nM, substrate Z-L-Lys-SBzl, A405; read-out: IC50 (Stars).
Format: biochemical
Description: The assay of Example 3 was used to determine the IC50's of the compounds. Other standard factor D inhibition assays are also available.
Human Factor D (purified from human serum, Complement Technology, Inc.) at 80 nM final concentration is incubated with test compound at various concentrations for 5 min at room temperature in 50 mM Tris, 1M NaCl, pH 7.5. A synthetic substrate Z-L-Lys-SBzI and DTNB (Ellman's reagent) are added to final concentrations of 100 μM each. Absorbance at 405 nm (A405) is recorded at 30 second intervals for 30 min using a microplate spectrophotometer. IC50 values are calculated by nonlinear regression of complement Factor D reaction rates as a function of test compound concentration.

Human Factor D, sequence (P00746 26-253): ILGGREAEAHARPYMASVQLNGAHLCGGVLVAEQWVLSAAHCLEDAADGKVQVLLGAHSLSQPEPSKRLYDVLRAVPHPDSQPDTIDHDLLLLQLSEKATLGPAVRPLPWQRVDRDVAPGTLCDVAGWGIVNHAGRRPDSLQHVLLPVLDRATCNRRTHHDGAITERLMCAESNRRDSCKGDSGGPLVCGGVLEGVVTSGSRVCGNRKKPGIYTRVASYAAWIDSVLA

SMILES	IC50 [nM]
CC(=O)c1nn2c3c(cc(-c4cnc(C)nc4)cc13)CCCCC[C@@H](C)C(=O)NC[C@@]13C[C@@H](C(=O)Nc4nc(C(F)(F)F)ccc4C)N(C(=O)C2)[C@@H]1C3 [Compound 8, (4^1R,4^3S,4^5R,8R)-1^3-acetyl-8-methyl-N-(3-methyl-6-(trifluoromethyl)pyridin-2-yl)-1^5-(2-methylpyrimidin-5-yl)-3,7-dioxo-1^1H-4^2,6-diaza-1(1,7)-indazola-4(2,5)-bicyclo[3.1.0]hexanacyclotridecaphane-4^3-carboxamide]	< 1000
CC(=O)c1nn2c3c(cc(-c4cnc(C)nc4)cc13)CCCCC[C@@H](C)C(=O)NC[C@@]13C[C@@H](C(=O)Nc4cc(F)cc(Br)n4)N(C(=O)C2)[C@@H]1C3 [Compound 9, (4^1R,4^3S,4^5R,8R)-1^3-acetyl-N-(6-bromo-4-fluoropyridin-2-yl)-8-methyl-1^5-(2-methylpyrimidin-5-yl)-3,7-dioxo-1^1H-4^2,6-diaza-1(1,7)-indazola-4(2,5)-bicyclo[3.1.0]hexanacyclotridecaphane-4^3-carboxamide]	< 1000
CC(=O)c1nn2c3c(cc(-c4cnc(C)nc4)cc13)CCCCCC(C)(C)C(=O)NC[C@@]13C[C@@H](C(=O)Nc4nc(C(F)(F)F)ccc4C)N(C(=O)C2)[C@@H]1C3 [Compound 10, (4^1R,4^3S,4^5R)-1^3-acetyl-8,8-dimethyl-N-(3-methyl-6-(trifluoromethyl)pyridin-2-yl)-1^5-(2-methylpyrimidin-5-yl)-3,7-dioxo-1^1H-4^2,6-diaza-1(1,7)-indazola-4(2,5)-bicyclo[3.1.0]hexanacyclotridecaphane-4^3-carboxamide]	< 1000
CC(=O)c1nn2c3c(cc(-c4cnc(C)nc4)cc13)CCCCCCC(=O)NC[C@@]13C[C@@H](C(=O)Nc4nc(C5CC5)ccc4C)N(C(=O)C2)[C@@H]1C3 [Compound 11, (4^1R,4^3S,45^R)-1^3-acetyl-N-(6-cyclopropyl-3-methylpyridin-2-yl)-15-(2-methylpyrimidin-5-yl)-3,7-dioxo-1^1H-4^2,6-diaza-1(1,7)-indazola-4(2,5)-bicyclo[3.1.0]hexanacyclotridecaphane-4^3-carboxamide]	< 1000
CC(=O)c1nn(CC(=O)N(C)[C@H]2CCCCCCCCCc3ccc(Br)nc3NC2=O)c2ccc(-c3cnc(C)nc3)cc12 [Compound 12, (S)-2-(3-acetyl-5-(2-methylpyrimidin-5-yl)-1H-indazol-1-yl)-N-(2-bromo-15-oxo-5,6,7,8,9,10,11,12,13,14, 15,16-dodecahydropyrido[2,3-b][1]azacyclotetradecin-14-yl)-N-methylacetamide]	1000 to 10000
CC(=O)c1nn2c3c(cc(-c4cnc(C)nc4)cc13)C/C=C/CCCC(=O)N(C)C[C@@]13C[C@@H](C(=O)Nc4cc(F)cc(Br)n4)N(C(=O)C2)[C@@H]1C3 [Compound 13, (4^1R,4^3S,4^5R,E)-1^3-acetyl-N-(6-bromo-4-fluoropyridin-2-yl)-6-methyl-1^5-(2-methylpyrimidin-5-yl)-3,7-dioxo-1^1H-4^2,6-diaza-1(1,7)-indazola-4(2,5)-bicyclo[3.1.0]hexanacyclotridecaphan-11-ene-4^3-carboxamide]	< 1000
CC(=O)c1nn2c3c(cc(-c4cnc(C)nc4)cc13)CCCCCCC(=O)N(C)C[C@@]13C[C@@H](C(=O)Nc4cc(F)cc(Br)n4)N(C(=O)C2)[C@@H]1C3 [Compound 14, (4^1R,4^3S,4^5R)-1^3-acetyl-N-(6-bromo-4-fluoropyridin-2-yl)-6-methyl-1^5-(2-methylpyrimidin-5-yl)-3,7-dioxo-1^1H-4^2,6-diaza-1(1,7)-indazola-4(2,5)-bicyclo[3.1.0]hexanacyclotridecaphane-4^3-carboxamide]	< 1000
CC(=O)c1nn2c3c(cc(N)cc13)CCCCCCC(=O)NC[C@@]13C[C@@H](C(=O)Nc4nc(C(F)(F)F)ccc4C)N(C(=O)C2)[C@@H]1C3 [Compound 15, (4^1R,4^3S,4^5R)-1^3-acetyl-1^5-amino-N-(3-methyl-6-(trifluoromethyl)pyridin-2-yl)-3,7-dioxo-1^1H-4^2,6-diaza-1(1,7)-indazola-4(2,5)-bicyclo[3.1.0]hexanacyclotridecaphane-4^3-carboxamide]	< 1000
